Laboratory results from PubChem BioAssay AID330 (DTP/NCI, 2004).
Several values for one entry are separate records, joined by “and”; a condition that tells them apart may be missing. Identical values can stand only once. Inconclusive results and toxic doses are left out.

System: P388 leukemia ip, CD2F1 mice, survival T/C
Assay: NCI In Vivo Anticancer Drug Screen. Data for tumor model P388 Leukemia (intraperitoneal) in CD2F1 (CDF1) mice
Conditions: endpoint: median survival time, higher = longer survival
In short: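 Mice carrying the transplanted tumor received test compound or vehicle. Survival was recorded in each group, and the value is the treated-group measurement divided by that of the vehicle-treated control group.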

[1] = dose: 25.0 mg/kg/injection, schedule: Q01DX009 (ip), vehicle: saline with Tween-80
[2] = dose: 50.0 mg/kg/injection, schedule: Q01DX009 (ip), vehicle: saline with Tween-80
[3] = dose: 100.0 mg/kg/injection, schedule: Q01DX009 (ip), vehicle: saline with Tween-80
[4] = dose: 12.5 mg/kg/injection, schedule: Q01DX009 (ip), vehicle: saline
[5] = dose: 25.0 mg/kg/injection, schedule: Q01DX009 (ip), vehicle: saline
[6] = dose: 100.0 mg/kg/injection, schedule: Q04DX003 (ip), vehicle: saline
[7] = dose: 100.0 mg/kg/injection, schedule: Q01DX009 (ip), vehicle: Klucel (hydroxypropylcellulose) (HPC)
[8] = dose: 200.0 mg/kg/injection, schedule: Q01DX009 (ip), vehicle: Klucel (hydroxypropylcellulose) (HPC)
[9] = dose: 200.0 mg/kg/injection, schedule: Q01DX009 (ip), vehicle: saline with Tween-80
[10] = dose: 50.0 mg/kg/injection, schedule: Q01DX005 (ip), vehicle: saline with Tween-80
[11] = dose: 100.0 mg/kg/injection, schedule: Q01DX005 (ip), vehicle: saline with Tween-80
[12] = dose: 200.0 mg/kg/injection, schedule: Q01DX005 (ip), vehicle: saline with Tween-80
[13] = dose: 50.0 mg/kg/injection, schedule: Q01DX005 (ip), vehicle: Klucel (hydroxypropylcellulose) (HPC)
[14] = dose: 100.0 mg/kg/injection, schedule: Q01DX005 (ip), vehicle: Klucel (hydroxypropylcellulose) (HPC)

SMILES: CC12C=C3CC(OC(=O)c4ccccc4)CCC3(O1)c1ccccc12 (centres undefined)
- T/C [1]: 99 % of control
- T/C [2]: 105 % of control
- T/C [3]: 95 % of control

SMILES: C=C(C)CCC(N)C(=O)O (centres undefined)
- T/C [4]: 107 % of control
- T/C [5]: 104 % of control
- T/C (dose: 50.0 mg/kg/injection, schedule: Q01DX009 (ip), vehicle: saline): 100 % of control

SMILES: CSc1ccc(C)cc1C(C)=O
- T/C (dose: 50.0 mg/kg/injection, schedule: Q01DX005 (ip), vehicle: acetone): 93 % of control
- T/C (dose: 100.0 mg/kg/injection, schedule: Q01DX005 (ip), vehicle: acetone): 99 % of control
- T/C (dose: 200.0 mg/kg/injection, schedule: Q01DX005 (ip), vehicle: acetone): 100 % of control

SMILES: CN1/C(=C2\C=CC=C\C2=N/S(=O)(=O)c2ccccc2)Sc2ccccc21
- T/C [6]: 104 % of control
- T/C (dose: 200.0 mg/kg/injection, schedule: Q04DX003 (ip), vehicle: saline): 99 % of control
- T/C (dose: 400.0 mg/kg/injection, schedule: Q04DX003 (ip), vehicle: saline): 94 % of control

SMILES: CC1=CC(=O)[C@@H](O)[C@]2(C)[C@H]3[C@@]4(O)OC[C@]35[C@H]([C@@H](C)[C@H]4O)[C@@H](O)C(=O)O[C@@H]5C[C@@H]12
- T/C (dose: 6.25 mg/kg/injection, schedule: Q01DX009 (ip), vehicle: saline): 115 % of control
- T/C [4]: 104 % of control
- T/C [5]: 115 % of control

SMILES: CCCN(CCC)C(C)C(O)c1cc2c(c3ccccc13)CCCC2 (centres undefined)
- T/C [7]: 109 % of control
- T/C [8]: 93 % of control

SMILES: CCC(C)Sc1nc2ccc(NC(=O)/C=C/C(=O)O)cc2s1 (centres undefined)
- T/C (dose: 100.0 mg/kg/injection, schedule: Q04DX003 (ip), vehicle: Klucel (hydroxypropylcellulose) (HPC)): 95 % of control
- T/C (dose: 200.0 mg/kg/injection, schedule: Q04DX003 (ip), vehicle: Klucel (hydroxypropylcellulose) (HPC)): 100 % of control

SMILES: CC[C@@]1(O)C(=O)OCc2c1cc1n(c2=O)Cc2cc3ccccc3nc2-1
- T/C (dose: 0.25 mg/kg/injection, schedule: Q04DX003 (ip), vehicle: other): 109 % of control
- T/C (dose: 0.5 mg/kg/injection, schedule: Q04DX003 (ip), vehicle: other): 119 % of control and 122 % of control
- T/C (dose: 0.79 mg/kg/injection, schedule: Q04DX003 (ip), vehicle: other): 151 % of control
- T/C (dose: 1.0 mg/kg/injection, schedule: Q04DX003 (ip), vehicle: other): 163 % of control
- T/C (dose: 1.5 mg/kg/injection, schedule: Q01DX005 (ip), vehicle: saline with Tween-80): 153 % of control and 161 % of control (2×)
- T/C (dose: 1.57 mg/kg/injection, schedule: Q04DX003 (ip), vehicle: other): 161 % of control
- T/C (dose: 1.6 mg/kg/injection, schedule: Q04DX003 (ip), vehicle: saline with Tween-80): 150 % of control
- T/C (dose: 2.0 mg/kg/injection, schedule: Q04DX003 (ip), vehicle: other): 157 % of control and 158 % of control
- T/C (dose: 2.1 mg/kg/injection, schedule: Q01DX005 (ip), vehicle: saline with Tween-80): 187 % of control
- T/C (dose: 2.5 mg/kg/injection, schedule: Q04DX003 (ip), vehicle: saline with Tween-80): 181 % of control
- T/C (dose: 3.0 mg/kg/injection, schedule: Q01DX005 (ip), vehicle: saline with Tween-80): 192 % of control and 194 % of control and 196 % of control
- T/C (dose: 3.13 mg/kg/injection, schedule: Q04DX003 (ip), vehicle: other): 278 % of control
- T/C (dose: 3.6 mg/kg/injection, schedule: Q01DX005 (ip), vehicle: saline with Tween-80): 277 % of control
- T/C (dose: 4.0 mg/kg/injection, schedule: Q04DX003 (ip), vehicle: other): 155 % of control and 197 % of control and 245 % of control
- T/C (dose: 5.0 mg/kg/injection, schedule: Q04DX002 (ip), vehicle: saline with Tween-80): 175 % of control
- T/C (dose: 8.0 mg/kg/injection, schedule: Q04DX003 (ip), vehicle: other): 92 % of control
- T/C (dose: 12.0 mg/kg/injection, schedule: Q01DX005 (ip), vehicle: saline with Tween-80): 87 % of control

SMILES: CCN(CC)C(=S)N1C(=O)C2C3CCC(O3)C2C1=O (centres undefined)
- T/C (dose: 15.0 mg/kg/injection, schedule: Q01DX005 (ip), vehicle: saline with Tween-80): 101 % of control
- T/C (dose: 30.0 mg/kg/injection, schedule: Q01DX005 (ip), vehicle: saline with Tween-80): 104 % of control
- T/C (dose: 60.0 mg/kg/injection, schedule: Q01DX005 (ip), vehicle: saline with Tween-80): 110 % of control

SMILES: CC(=O)N1C2=CCCC3CCCCC23c2ccccc21 (centres undefined)
- T/C [2]: 98 % of control
- T/C [3]: 93 % of control
- T/C [9]: 89 % of control
- T/C (dose: 400.0 mg/kg/injection, schedule: Q01DX009 (ip), vehicle: saline with Tween-80): 95 % of control

SMILES: CCOCCNc1ncnc2c1cnn2C
- T/C (dose: 12.5 mg/kg/injection, schedule: Q04DX003 (ip), vehicle: saline): 91 % of control
- T/C (dose: 25.0 mg/kg/injection, schedule: Q04DX003 (ip), vehicle: saline): 88 % of control
- T/C (dose: 50.0 mg/kg/injection, schedule: Q04DX003 (ip), vehicle: saline): 93 % of control
- T/C [6]: 95 % of control

SMILES: Cc1cc(C)c2c(c1)/C(=C/C(=O)c1ccccc1)C(=O)N2
- T/C (dose: 50.0 mg/kg/injection, schedule: Q01DX009 (ip), vehicle: Klucel (hydroxypropylcellulose) (HPC)): 100 % of control
- T/C [7]: 95 % of control
- T/C [8]: 100 % of control

SMILES: C=C1C2CCC3C(CCC4C5(C)CCCC43CN3CCOC35)(C2)C1O (centres undefined)
- T/C (dose: 1.0 mg/kg/injection, schedule: Q01DX009 (ip), vehicle: Klucel (hydroxypropylcellulose) (HPC)): 95 % of control
- T/C (dose: 2.0 mg/kg/injection, schedule: Q01DX009 (ip), vehicle: Klucel (hydroxypropylcellulose) (HPC)): 97 % of control
- T/C (dose: 4.0 mg/kg/injection, schedule: Q01DX009 (ip), vehicle: Klucel (hydroxypropylcellulose) (HPC)): 98 % of control
- T/C (dose: 8.0 mg/kg/injection, schedule: Q01DX009 (ip), vehicle: Klucel (hydroxypropylcellulose) (HPC)): 97 % of control

SMILES: Cc1cc(O)c(C2(C)CCC3CC32C)cc1Br (centres undefined)
- T/C [1]: 97 % of control
- T/C [2]: 105 % of control
- T/C [3]: 107 % of control
- T/C [9]: 114 % of control

SMILES: O=C(O)C(Cc1ccc(O)cc1)c1ccc(C(Cc2ccc(O)cc2)C(=O)O)cc1 (centres undefined)
- T/C [10]: 105 % of control
- T/C [11]: 102 % of control
- T/C [12]: 100 % of control

SMILES: CN1NC(c2ccccc2)NN(C)C1=O
- T/C (dose: 50.0 mg/kg/injection, schedule: Q01DX005 (ip), vehicle: saline): 97 % of control
- T/C (dose: 100.0 mg/kg/injection, schedule: Q01DX005 (ip), vehicle: saline): 99 % of control
- T/C (dose: 200.0 mg/kg/injection, schedule: Q01DX005 (ip), vehicle: saline): 106 % of control

SMILES: OC(Cn1cccc1)Cn1cccc1
- T/C (dose: 60.0 mg/kg/injection, schedule: Q01DX005 (ip), vehicle: saline): 100 % of control
- T/C (dose: 120.0 mg/kg/injection, schedule: Q01DX005 (ip), vehicle: saline): 103 % of control
- T/C (dose: 240.0 mg/kg/injection, schedule: Q01DX005 (ip), vehicle: saline): 100 % of control

SMILES: Cc1ccc(C)c2c1C(=O)c1ccccc1C2(O)C#Cc1ccccc1 (centres undefined)
- T/C [13]: 101 % of control
- T/C [14]: 94 % of control
- T/C (dose: 200.0 mg/kg/injection, schedule: Q01DX005 (ip), vehicle: Klucel (hydroxypropylcellulose) (HPC)): 94 % of control

SMILES: CCOc1cccc(/C=N/N=C2\C(=O)Nc3c(Cl)cc(Cl)cc32)c1O
- T/C [10]: 89 % of control
- T/C [11]: 92 % of control
- T/C [12]: 91 % of control

SMILES: CCc1nc(-c2ccccc2)nc2c1nc(Cc1ccccc1)n2Nc1ccccc1
- T/C (dose: 100.0 mg/kg/injection, schedule: Q01DX001 (ip), vehicle: Klucel (hydroxypropylcellulose) (HPC)): 88 % of control

SMILES: O=C1c2ccccc2C(=O)N1OCc1ccc(-c2ccccc2)cc1
- T/C [13]: 96 % of control
- T/C [14]: 93 % of control

SMILES: CN1C(=O)N(C)C(O)(/C=C/c2c(Cl)cccc2Cl)N(C)C1=O
- T/C [1]: 106 % of control and 92 % of control
- T/C [2]: 94 % of control and 96 % of control
- T/C [3]: 93 % of control and 96 % of control
- T/C [9]: 89 % of control and 91 % of control

SMILES: COc1cc2cc(c1Cl)N(C)C(=O)/C=C/C1(C)OC1C(C)C1CC(O)(NC(=O)O1)C(OC)/C=C/C=C(\C)C2OC (centres undefined)
- T/C (dose: 4.0 micrograms/kg/injection, schedule: Q01DX009 (ip), vehicle: distilled water + alcohol): 103 % of control
- T/C (dose: 8.0 micrograms/kg/injection, schedule: Q01DX009 (ip), vehicle: distilled water + alcohol): 100 % of control
- T/C (dose: 64.0 micrograms/kg/injection, schedule: Q01DX009 (ip), vehicle: distilled water + alcohol): 99 % of control
- T/C (dose: 128.0 micrograms/kg/injection, schedule: Q01DX009 (ip), vehicle: distilled water + alcohol): 91 % of control
